From patent publication US8835428B2, “Diacylglycerol acyltransferase inhibitors” (Piramal Enterprises Limited, priority 2008, dated 2014)

Molecular target: T1, hDGAT1 (Homo sapiens, UniProt O75907)
T1 construct: host or cells: Sf9 insect cells (baculovirus); microsomal preparation
T1 sequence (O75907 1-488): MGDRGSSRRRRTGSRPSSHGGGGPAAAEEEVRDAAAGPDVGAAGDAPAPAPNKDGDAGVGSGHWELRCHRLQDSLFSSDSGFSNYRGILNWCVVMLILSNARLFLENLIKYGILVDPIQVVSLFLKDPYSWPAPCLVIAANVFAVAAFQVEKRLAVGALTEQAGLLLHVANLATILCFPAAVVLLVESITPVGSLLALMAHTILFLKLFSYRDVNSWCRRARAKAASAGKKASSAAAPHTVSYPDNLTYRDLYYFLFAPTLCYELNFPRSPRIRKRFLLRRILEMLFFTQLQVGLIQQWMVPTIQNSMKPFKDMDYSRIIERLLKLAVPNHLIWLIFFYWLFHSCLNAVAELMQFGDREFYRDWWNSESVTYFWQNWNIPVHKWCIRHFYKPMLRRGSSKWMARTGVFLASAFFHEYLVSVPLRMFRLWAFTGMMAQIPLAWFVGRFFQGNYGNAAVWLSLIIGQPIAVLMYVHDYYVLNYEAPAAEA
Assay: In-vitro DGAT1 assay (hDGAT1 microsomes from Sf9 cells, 14C oleoyl CoA, triglyceride formation)
Assay type: biochemical
Summary of the method: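 Human DGAT1 in baculovirus-infected Sf9 microsomes (2.5–10 μg), [14C]oleoyl-CoA with 409.5, 1228.5 or 1638 μM 1,2-dioleoyl-sn-glycerol, Tris-HCl pH 7.4 buffer with BSA. Compounds screened at 10, 5 and 1 μM in duplicate. Reaction 10 min at 37 °C; heptane-extracted [14C]triglyceride counted by scintillation.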

inhibition at 1 µM [%] | inhibition at 10 µM [%] | Compound | also measured
50 to 75 |  | COC(=O)[C@H](C(C)C)N(C)C(=O)c1cc(-c2ccc(NC(=O)Nc3ccc(F)cc3)cc2)no1 [Example 307, (S)-methyl 2-(3-(4-(3-(4-fluorophenyl)ureido)phenyl)-N-methylisoxazole-5-carboxamido)-3-methylbutanoate] | 
0 to 50 |  | CC(C)C(NC(=O)c1cc(-c2ccc(OCc3ccccc3)cc2)no1)C(=O)O (stereo not shown) [Example 322, 2-(3-(4-(Benzyloxy)phenyl)isoxazole-5-carboxamido)-3-methylbutanoic acid] | 
50 to 75 |  | CC(C)[C@@H](NC(=O)c1cc(-c2ccc(NC(=O)Nc3ccccc3F)cc2)no1)C(=O)O [Example 258, (R)-2-(3-(4-(3-(2-Fluorophenyl)ureido)phenyl)isoxazole-5-carboxamido)-3-methylbutanoic acid] | 
50 to 75 |  | CC(C)[C@@H](C(=O)O)N(C)C(=O)c1cc(-c2ccc(NC(=O)Nc3ccccc3F)cc2)no1 [Example 306, (S)-2-(3-(4-(3-(2-fluorophenyl)ureido)phenyl)-N-methylisoxazole-5-carboxamido)-3-methylbutanoic acid] | 
 | 50 to 75 | CC(C)(NC(=O)c1cc(-c2ccc(NC(=O)Nc3ccc(F)cc3)cc2)no1)C(=O)O [Example 118, 2-(3-(4-(3-(4-fluorophenyl)ureido)phenyl)isoxazole-5-carboxamido)-2-methylpropanoic acid] | 
 | 75 to 100 | CC(C)C[C@H](NC(=O)c1cc(-c2ccc(Nc3nc4ccc(F)cc4s3)cc2)no1)C(=O)O [Example 47, (S)-2-({3-[4-(6-fluoro-benzothiazol-2-ylamino)-phenyl]-isoxazole-5-carbonyl}-amino)-4-methyl-pentanoic acid] | 
 | 50 to 75 | COC(=O)[C@H](NC(=O)c1cc(-c2ccc(Nc3nc4ccc(F)cc4s3)cc2)no1)C(C)C [Example 38, (R)-2-({3-[4-(6-Fluoro-benzothiazol-2-ylamino)-phenyl]-isoxazole-5-carbonyl}-amino)-3-methyl-butyric acid methyl ester] | 
0 to 50 |  | COC(=O)[C@H](NC(=O)c1cc(-c2ccc(NS(=O)(=O)c3ccccc3F)cc2)no1)C(C)C [Example 315, (R)-methyl 2-(3-(4-(2-fluorophenylsulfonamido)phenyl)isoxazole-5-carboxamido)-3-methylbutanoate] | 
 | 50 to 75 | COC[C@H](NC(=O)c1cc(-c2ccc(Nc3nc4ccc(F)cc4s3)cc2)no1)C(=O)OC [Example 12, (S)-2-({3-[4-(6-Fluoro-benzothiazol-2-ylamino)-phenyl]-isoxazole-5-carbonyl}-amino)-3-methoxy-propionic acid methyl ester] | 
75 to 100 |  | CC(C)[C@H](NC(=O)c1cc(-c2ccc(NC(=O)Nc3ccc(Cl)cc3Oc3ccccc3)cc2)no1)C(=O)O [Example 201, (S)-2-(3-(4-(3-(4-Chloro-2-phenoxyphenyl)ureido)phenyl)isoxazole-5-carboxamido)-3-methylbutanoic acid] | 
 | 50 to 75 | COC(=O)C(C)(C)NC(=O)c1cc(-c2ccc(NC(=O)Nc3ccc(F)cc3)cc2)no1 [Example 117, Methyl 2-(3-(4-(3-(4-fluorophenyl)ureido)phenyl)isoxazole-5-carboxamido)-2-methylpropanoate] | 
50 to 75 |  | CC(C)[C@H](NC(=O)c1cc(-c2ccc(NC(=O)Nc3ccc(F)cc3)cc2F)no1)C(=O)O [Example 146, (S)-2-(3-(2-fluoro-4-(3-(4-fluorophenyl)ureido)phenyl)isoxazole-5-carboxamido)-3-methylbutanoic acid] | 

More lines, now with the values behind:

Compound | inhibition at 1 µM [%] | inhibition at 10 µM [%] | also measured
O=C(O)[C@@H]1CCCN1C(=O)c1cc(-c2ccc(Nc3nc4ccc(F)cc4s3)cc2)no1 [Example 19, (S)-1-{3-[4-(6-Fluoro-benzothiazol-2-ylamino)-phenyl]-isoxazole-5-carbonyl}-pyrrolidine-2-carboxylic acid] |  | 50 to 75 | 
CC(C)[C@H](NC(=O)c1cc(-c2ccc(NC(=O)Nc3ccc(F)cc3)cc2)no1)C(=O)O [Example 85, (S)-2-[(3-{4-[3-(4-Fluoro-phenyl)-ureido]-phenyl}-isoxazole-5-carbonyl)-amino]-3-methyl-butyric acid] |  | 75 to 100 | 
COC(=O)C(Cc1ccccc1)NC(=O)c1cc(-c2ccc(NC(=O)Nc3ccc(F)cc3F)cc2)no1 (stereo not shown) [Example 245, Methyl 2-(3-(4-(3-(2,4-difluorophenyl)ureido)phenyl)isoxazole-5-carboxamido)-3-phenylpropanoate] |  |  | inhibition at 5 µM: 0 to 50%
CC(C)[C@H](NC(=O)c1cc(-c2ccc(NC(=O)Nc3cc(F)cc(F)c3)cc2)no1)C(=O)O [Example 167, (S)-2-(3-(4-(3-(3,5-difluorophenyl)ureido)phenyl)isoxazole-5-carboxamido)-3-methylbutanoic acid] | 75 to 100 |  | 
O=C(Nc1ccc(-c2cc(C(=O)N[C@@H](CO)C(=O)O)on2)cc1)Nc1ccccc1F [Example 299, (S)-2-(3-(4-(3-(2-Fluorophenyl)ureido)phenyl)isoxazole-5-carboxamido)-3-hydroxypropanoic acid] |  |  | inhibition at 5 µM: 50 to 75%
COC(=O)[C@@H](NC(=O)c1cc(-c2ccc(NC(=S)Nc3ccccc3F)cc2)no1)C(C)C [Example 269, (S)-methyl 2-(3-(4-(3-(2-fluorophenyl)thioureido)phenyl)isoxazole-5-carboxamido)-3-methylbutanoate] |  |  | inhibition at 5 µM: 0 to 50%
O=C(O)C1(NC(=S)c2cc(-c3ccc(Nc4nc5ccc(F)cc5s4)cc3)no2)CCCC1 [Example 65, 1-({3-[4-(6-Fluoro-benzothiazol-2-ylamino)-phenyl]-isoxazole-5-carbothioyl}-amino)-cyclopentanecarboxylic acid] |  | 0 to 50 | 
COc1ccc(NC(=O)Nc2ccc(-c3noc(C(=O)N[C@H](C(=O)O)C(C)C)n3)cc2)cc1 [Example 345, (S)-2-(3-(4-(3-(4-methoxyphenyl)ureido)phenyl)-1,2,4-oxadiazole-5-carboxamido)-3-methylbutanoic acid] |  |  | inhibition at 5 µM: 50 to 75%
CC(C)[C@H](NC(=O)c1csc(-c2ccc(NC(=O)Nc3ccc4c(c3)CCC4)cc2)n1)C(=O)O [Example 361, (S)-2-(2-(4-(3-(2,3-dihydro-1H-inden-5-yl)ureido)phenyl)thiazole-4-carboxamido)-3-methylbutanoic acid] | 0 to 50 |  | 
CC(C)[C@H](NC(=O)c1cc(-c2ccc(NC(=O)Nc3cccc(Cl)c3)cc2)no1)C(=O)O [Example 209, (S)-2-(3-(4-(3-(3-chlorophenyl)ureido)phenyl)isoxazole-5-carboxamido)-3-methylbutanoic acid] | 75 to 100 |  | 
Cc1ccc(Cl)cc1NC(=O)Nc1ccc(-c2cc(C(=O)N[C@H](C(=O)O)C(C)C)on2)cc1 [Example 195, (S)-2-(3-(4-(3-(5-chloro-2-methylphenyl)ureido)phenyl)isoxazole-5-carboxamido)-3-methylbutanoic acid] | 75 to 100 |  | 
CC(C)[C@H](NC(=O)c1cc(-c2ccc(NC(=O)Nc3ccc(Cl)cc3F)cc2)no1)C(=O)O [Example 193, (S)-2-(3-(4-(3-(4-chloro-2-fluorophenyl)ureido)phenyl)isoxazole-5-carboxamido)-3-methylbutanoic acid] | 75 to 100 |  | 
CC(C)C(NC(=O)c1cc(-c2ccc(OCc3cccc(C(F)(F)F)c3)cc2)no1)C(=O)O (stereo not shown) [Example 326, 3-Methyl-2-(3-(4-(3-(trifluoromethyl)benzyloxy)phenyl)isoxazole-5-carboxamido)butanoic acid] | 0 to 50 |  | 
COC(=O)C(C)NC(=O)c1cc(-c2ccc(NC(=O)Nc3c(F)cccc3F)c(C)c2)no1 (stereo not shown) [Example 101, Methyl 2-(3-(4-(3-(2,6-difluorophenyl)ureido)-3-methylphenyl)isoxazole-5-carboxamido)propanoate] |  | 0 to 50 | 
CC(C)C(NC(=O)c1cc(-c2ccc(NC(=O)NCc3ccccc3)cc2)no1)C(=O)O (stereo not shown) [Example 108, 2-(3-(4-(3-Benzylureido)phenyl)isoxazole-5-carboxamido)-3-methylbutanoic acid] |  | 50 to 75 | 
COC(=O)[C@@H](NC(=NO)c1cc(-c2cccc(Nc3nc4ccc(F)cc4s3)c2)no1)C(C)C [Example 26, (S)-2-({3-[3-(6-Fluoro-benzothiazol-2-ylamino)-phenyl]-N-hydroxy-isoxazole-5-carboximidoyl}-amino)-3-methyl-butyric acid methyl ester] |  | 0 to 50 | 
COC(=O)[C@@H](NC(=O)c1cc(-c2ccc(NC(=S)Nc3cccc(F)c3)cc2)no1)C(C)C [Example 267, (S)-methyl 2-(3-(4-(3-(3-fluorophenyl)thioureido)phenyl)isoxazole-5-carboxamido)-3-methylbutanoate] |  |  | inhibition at 5 µM: 0 to 50%
Cc1cc(-c2cc(C(=O)NC(C(=O)O)C(C)C)on2)ccc1NC(=O)Nc1c(F)cccc1F (stereo not shown) [Example 98, 2-(3-(4-(3-(2,6-Difluorophenyl)ureido)-3-methylphenyl)isoxazole-5-carboxamido)-3-methylbutanoic acid] |  | 50 to 75 | 
CC(C)[C@H](NC(=O)c1cc(-c2ccc(NC(=O)Nc3ccc(Oc4ccccc4)cc3)cc2)no1)C(=O)O [Example 240, (S)-3-Methyl-2-(3-(4-(3-(4-phenoxyphenyl)ureido)phenyl)isoxazole-5-carboxamido)butanoic acid] | 75 to 100 |  | 
